# From patent US11053204B2, “Pyrimidinyloxy benzene derivatives as herbicides” (FMC Corporation, priority 2015, dated 2021)
# Legend:
# Format in all cases: in vivo
# [1] = system: pigweed (Amaranthus retroflexus); test: Test A preemergence, visual injury rating; settings: 0 to 100 scale (0 no effect, 100 complete control)
# Procedure, shortened: (§1)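 Visual injury scored 0–100 (100 = complete control) against untreated controls about 10 days after treatment in a greenhouse. Test chemicals, formulated with surfactant in non-phytotoxic solvent, were sprayed on soil preemergence or on 2-10 cm, one- to two-leaf plants postemergence.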
# [2] = system: Italian ryegrass (Lolium multiflorum); test: Test A preemergence, visual injury rating; settings: 0 to 100 scale (0 no effect, 100 complete control)
# Procedure, shortened: as §1
# [3] = system: giant foxtail (Setaria faberii); test: Test A preemergence, visual injury rating; settings: 0 to 100 scale (0 no effect, 100 complete control)
# Procedure, shortened: as §1
# [4] = system: barnyardgrass (Echinochloa crus-galli); test: Test A preemergence, visual injury rating; settings: 0 to 100 scale (0 no effect, 100 complete control)
# Procedure, shortened: as §1
# [5] = system: ragweed (common ragweed, Ambrosia elatior); test: Test A preemergence, visual injury rating; settings: 0 to 100 scale (0 no effect, 100 complete control)
# Procedure, shortened: as §1
# kochia (Kochia scoparia) [6] = test: Test A preemergence, visual injury rating; settings: 0 to 100 scale (0 no effect, 100 complete control)
# Procedure, shortened: as §1
# [7] = system: galium (catchweed bedstraw, Galium aparine); test: Test C postemergence, plant response rating; settings: for Plant response rating, Galium: scale 0 to 100; for Galium plant response rating: scale 0 to 100 (0 no effect, 100 complete control)
# Procedure, shortened: (§2)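 Pre-emergence: seeds sown in loam soil–sand blend or silt loam and sprayed with test chemicals in a non-phytotoxic solvent mixture with surfactant. Post-emergence: plants 2 to 18 cm (1- to 4-leaf stage) in peat-based potting medium, same formulation. Greenhouse 13 to 15 d; visual rating 0 (no effect) to 100 (complete control) versus controls.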
# [8] = system: oat, wild (wild oat Avena fatua); test: Test C postemergence, plant response rating; settings: for Plant response rating, Oat, Wild: scale 0 to 100; for Oat, Wild plant response rating: scale 0 to 100 (0 no effect, 100 complete control)
# Procedure, shortened: as §2
# [9] = system: crabgrass, large (large crabgrass, Digitaria sanguinalis); test: Test C postemergence, plant response rating; settings: for Plant response rating, Crabgrass, Large: scale 0 to 100; for Crabgrass, Large plant response rating: scale 0 to 100 (0 no effect, 100 complete control)
# Procedure, shortened: as §2
# [10] = system: chickweed (common chickweed, Stellaria media); test: Test C postemergence, plant response rating; settings: for Plant response rating, Chickweed: scale 0 to 100; for Chickweed plant response rating: scale 0 to 100 (0 no effect, 100 complete control)
# Procedure, shortened: as §2
# corn (Zea mays) = test: Test C postemergence, plant response rating; settings: for Plant response rating, Corn: scale 0 to 100; for Corn plant response rating: scale 0 to 100 (0 no effect, 100 complete control)
# Procedure, shortened: as §2
# [11] = system: waterhemp (common waterhemp, Amaranthus rudis); test: Test C postemergence, plant response rating; settings: for Plant response rating, Waterhemp: scale 0 to 100; for Waterhemp plant response rating: scale 0 to 100 (0 no effect, 100 complete control)
# Procedure, shortened: as §2
# [12] = system: ragweed (common ragweed, Ambrosia elatior); test: Test C postemergence, plant response rating; settings: for Plant response rating, Ragweed: scale 0 to 100; for Ragweed plant response rating: scale 0 to 100 (0 no effect, 100 complete control)
# Procedure, shortened: as §2
# soybean (Glycine max) = test: Test C postemergence, plant response rating; settings: for Plant response rating, Soybean: scale 0 to 100; for Soybean plant response rating: scale 0 to 100 (0 no effect, 100 complete control)
# Procedure, shortened: as §2
# kochia (Kochia scoparia) [13] = test: Test C postemergence, plant response rating; settings: for Plant response rating, Kochia: scale 0 to 100; for Kochia plant response rating: scale 0 to 100 (0 no effect, 100 complete control)
# Procedure, shortened: as §2
# [14] = system: lambsquarters (Chenopodium album); test: Test C postemergence, plant response rating; settings: for Plant response rating, Lambsquarters: scale 0 to 100; for Lambsquarters plant response rating: scale 0 to 100 (0 no effect, 100 complete control)
# Procedure, shortened: as §2
# [15] = system: ryegrass, Italian (Italian ryegrass, Lolium multiflorum); test: Test C postemergence, plant response rating; settings: for Plant response rating, Ryegrass, Italian: scale 0 to 100; for Ryegrass, Italian plant response rating: scale 0 to 100 (0 no effect, 100 complete control)
# Procedure, shortened: as §2
# [16] = system: nutsedge, yellow (yellow nutsedge, Cyperus esculentus); test: Test C postemergence, plant response rating; settings: for Plant response rating, Nutsedge, Yellow: scale 0 to 100; for Nutsedge, Yellow plant response rating: scale 0 to 100 (0 no effect, 100 complete control)
# Procedure, shortened: as §2
smiles,measurement,setting,value
O=C(OCCC(F)(F)F)c1c(Br)cccc1Oc1ncc(Br)cn1 [Compound 33],Pigweed plant response rating,[1]; 125 g ai/ha,100
same,Pigweed plant response rating,[1]; 500 g ai/ha,100
same,"Ryegrass, Italian plant response rating",[2]; 125 g ai/ha,40
same,"Ryegrass, Italian plant response rating",[2]; 500 g ai/ha,100
same,"Foxtail, Giant plant response rating",[3]; 125 g ai/ha,100
same,"Foxtail, Giant plant response rating",[3]; 500 g ai/ha,100
same,Barnyardgrass plant response rating,[4]; 125 g ai/ha,100
same,Barnyardgrass plant response rating,[4]; 500 g ai/ha,100
same,Ragweed plant response rating,[5]; 125 g ai/ha,0
same,Ragweed plant response rating,[5]; 500 g ai/ha,20
same,Kochia plant response rating,kochia (Kochia scoparia) [6]; 125 g ai/ha,60
same,Kochia plant response rating,kochia (Kochia scoparia) [6]; 500 g ai/ha,100
same,"Plant response rating, Galium",[7]; 16 g ai/ha,50
same,"Plant response rating, Galium",[7]; 31 g ai/ha,70
same,Galium plant response rating,[7]; 62 g ai/ha,80
same,Galium plant response rating,[7]; 125 g ai/ha,85
same,"Plant response rating, Oat, Wild",[8]; 16 g ai/ha,5
same,"Plant response rating, Oat, Wild",[8]; 31 g ai/ha,10
same,"Oat, Wild plant response rating",[8]; 62 g ai/ha,25
same,"Oat, Wild plant response rating",[8]; 125 g ai/ha,30
same,"Plant response rating, Crabgrass, Large",[9]; 16 g ai/ha,5
same,"Plant response rating, Crabgrass, Large",[9]; 31 g ai/ha,5
same,"Crabgrass, Large plant response rating",[9]; 62 g ai/ha,10
same,"Crabgrass, Large plant response rating",[9]; 125 g ai/ha,15
same,"Plant response rating, Chickweed",[10]; 16 g ai/ha,50
same,"Plant response rating, Chickweed",[10]; 31 g ai/ha,55
same,Chickweed plant response rating,[10]; 62 g ai/ha,85
same,Chickweed plant response rating,[10]; 125 g ai/ha,85
same,"Plant response rating, Corn",corn (Zea mays); 16 g ai/ha,20
same,"Plant response rating, Corn",corn (Zea mays); 31 g ai/ha,25
same,Corn plant response rating,corn (Zea mays); 62 g ai/ha,25
same,Corn plant response rating,corn (Zea mays); 125 g ai/ha,30
same,"Plant response rating, Waterhemp",[11]; 16 g ai/ha,90
same,"Plant response rating, Waterhemp",[11]; 31 g ai/ha,80
same,Waterhemp plant response rating,[11]; 62 g ai/ha,100
same,Waterhemp plant response rating,[11]; 125 g ai/ha,100
same,"Plant response rating, Ragweed",[12]; 16 g ai/ha,40
same,"Plant response rating, Ragweed",[12]; 31 g ai/ha,30
same,Ragweed plant response rating,[12]; 62 g ai/ha,50
same,Ragweed plant response rating,[12]; 125 g ai/ha,60
same,"Plant response rating, Soybean",soybean (Glycine max); 16 g ai/ha,25
same,"Plant response rating, Soybean",soybean (Glycine max); 31 g ai/ha,65
same,Soybean plant response rating,soybean (Glycine max); 62 g ai/ha,30
same,Soybean plant response rating,soybean (Glycine max); 125 g ai/ha,55
same,"Plant response rating, Kochia",kochia (Kochia scoparia) [13]; 16 g ai/ha,90
same,"Plant response rating, Kochia",kochia (Kochia scoparia) [13]; 31 g ai/ha,95
same,Kochia plant response rating,kochia (Kochia scoparia) [13]; 62 g ai/ha,95
same,Kochia plant response rating,kochia (Kochia scoparia) [13]; 125 g ai/ha,95
same,"Plant response rating, Lambsquarters",[14]; 16 g ai/ha,60
same,"Plant response rating, Lambsquarters",[14]; 31 g ai/ha,70
same,Lambsquarters plant response rating,[14]; 62 g ai/ha,80
same,Lambsquarters plant response rating,[14]; 125 g ai/ha,90
same,"Plant response rating, Ryegrass, Italian",[15]; 16 g ai/ha,0
same,"Plant response rating, Ryegrass, Italian",[15]; 31 g ai/ha,5
same,"Ryegrass, Italian plant response rating",[15]; 62 g ai/ha,5
same,"Ryegrass, Italian plant response rating",[15]; 125 g ai/ha,30
same,"Plant response rating, Nutsedge, Yellow",[16]; 16 g ai/ha,5
same,"Plant response rating, Nutsedge, Yellow",[16]; 31 g ai/ha,5
same,"Nutsedge, Yellow plant response rating",[16]; 62 g ai/ha,5
same,"Nutsedge, Yellow plant response rating",[16]; 125 g ai/ha,10
O=C(OCC(F)(F)F)c1c(Br)cccc1Oc1ncc(Cl)cn1 [Compound 35],Pigweed plant response rating,[1]; 125 g ai/ha,100
same,Pigweed plant response rating,[1]; 500 g ai/ha,100
same,"Ryegrass, Italian plant response rating",[2]; 125 g ai/ha,0
same,"Ryegrass, Italian plant response rating",[2]; 500 g ai/ha,30
same,"Foxtail, Giant plant response rating",[3]; 125 g ai/ha,100
same,"Foxtail, Giant plant response rating",[3]; 500 g ai/ha,100
same,Barnyardgrass plant response rating,[4]; 125 g ai/ha,70
same,Barnyardgrass plant response rating,[4]; 500 g ai/ha,90
same,Ragweed plant response rating,[5]; 125 g ai/ha,0
same,Ragweed plant response rating,[5]; 500 g ai/ha,0
same,Kochia plant response rating,kochia (Kochia scoparia) [6]; 125 g ai/ha,30
same,Kochia plant response rating,kochia (Kochia scoparia) [6]; 500 g ai/ha,80
same,"Plant response rating, Galium",[7]; 16 g ai/ha,35
same,"Plant response rating, Galium",[7]; 31 g ai/ha,35
same,Galium plant response rating,[7]; 62 g ai/ha,55
same,Galium plant response rating,[7]; 125 g ai/ha,60
same,"Plant response rating, Oat, Wild",[8]; 16 g ai/ha,0
same,"Plant response rating, Oat, Wild",[8]; 31 g ai/ha,0
same,"Oat, Wild plant response rating",[8]; 62 g ai/ha,0
same,"Oat, Wild plant response rating",[8]; 125 g ai/ha,0
same,"Plant response rating, Crabgrass, Large",[9]; 16 g ai/ha,10
same,"Plant response rating, Crabgrass, Large",[9]; 31 g ai/ha,10
same,"Crabgrass, Large plant response rating",[9]; 62 g ai/ha,15
same,"Crabgrass, Large plant response rating",[9]; 125 g ai/ha,10
same,"Plant response rating, Chickweed",[10]; 16 g ai/ha,5
same,"Plant response rating, Chickweed",[10]; 31 g ai/ha,40
same,Chickweed plant response rating,[10]; 62 g ai/ha,45
same,Chickweed plant response rating,[10]; 125 g ai/ha,50
same,"Plant response rating, Corn",corn (Zea mays); 16 g ai/ha,5
same,"Plant response rating, Corn",corn (Zea mays); 31 g ai/ha,10
same,Corn plant response rating,corn (Zea mays); 62 g ai/ha,20
same,Corn plant response rating,corn (Zea mays); 125 g ai/ha,20
same,"Plant response rating, Waterhemp",[11]; 16 g ai/ha,65
same,"Plant response rating, Waterhemp",[11]; 31 g ai/ha,80
same,Waterhemp plant response rating,[11]; 62 g ai/ha,90
same,Waterhemp plant response rating,[11]; 125 g ai/ha,95
same,"Plant response rating, Ragweed",[12]; 16 g ai/ha,0
same,"Plant response rating, Ragweed",[12]; 31 g ai/ha,5
same,Ragweed plant response rating,[12]; 62 g ai/ha,10
same,Ragweed plant response rating,[12]; 125 g ai/ha,20
same,"Plant response rating, Soybean",soybean (Glycine max); 16 g ai/ha,25
same,"Plant response rating, Soybean",soybean (Glycine max); 31 g ai/ha,25
same,Soybean plant response rating,soybean (Glycine max); 62 g ai/ha,35
same,Soybean plant response rating,soybean (Glycine max); 125 g ai/ha,35
same,"Plant response rating, Kochia",kochia (Kochia scoparia) [13]; 16 g ai/ha,5
same,"Plant response rating, Kochia",kochia (Kochia scoparia) [13]; 31 g ai/ha,40
same,Kochia plant response rating,kochia (Kochia scoparia) [13]; 62 g ai/ha,60
same,Kochia plant response rating,kochia (Kochia scoparia) [13]; 125 g ai/ha,90
same,"Plant response rating, Lambsquarters",[14]; 16 g ai/ha,50
same,"Plant response rating, Lambsquarters",[14]; 31 g ai/ha,40
same,Lambsquarters plant response rating,[14]; 62 g ai/ha,65
same,Lambsquarters plant response rating,[14]; 125 g ai/ha,70
same,"Plant response rating, Ryegrass, Italian",[15]; 16 g ai/ha,0
same,"Plant response rating, Ryegrass, Italian",[15]; 31 g ai/ha,0
same,"Ryegrass, Italian plant response rating",[15]; 62 g ai/ha,5
same,"Ryegrass, Italian plant response rating",[15]; 125 g ai/ha,5
same,"Plant response rating, Nutsedge, Yellow",[16]; 16 g ai/ha,0
same,"Plant response rating, Nutsedge, Yellow",[16]; 31 g ai/ha,0
same,"Nutsedge, Yellow plant response rating",[16]; 62 g ai/ha,0
same,"Nutsedge, Yellow plant response rating",[16]; 125 g ai/ha,5
